Calls of active or inactive are those of the source. No cut-off for these calls is given here.
How the values were obtained:
MCF7 [1] = experiment: Induction of cell cycle arrest in human MCF7 cells assessed as accumulation of cells in sub G1 phase at 0.25 to 1 uM measured after 24 hrs by propidium iodide staining based flow cytometry analysis (Rvb= 21.1%); type: functional; settings: dose 0.25-1 µM
MCF7 [2] = experiment: Inhibition of PI3K/AKT signalling pathway in human MCF7 cells assessed as reduction in AKT expression at 0.5 to 2 uM measured after 24 hrs by western blot analysis; type: cell-based; settings: dose 0.5-2 µM
MCF7 [3] = experiment: Induction of apoptosis in human MCF7 cells assessed as upregulation of Bad expression at 0.5 to 2 uM measured after 24 hrs by western blot analysis; type: functional, cell-based; settings: dose 0.5-2 µM
MDA-MB-231 = experiment: Antiproliferative activity against human MDA-MB-231 cells assessed as inhibition of cell growth measured after 48 hrs by MTT assay; type: functional, cell-based; settings: MDA-MB-231, 48 h
MCF7 [4] = experiment: Induction of apoptosis in human MCF7 cells assessed as live cells at 0.25 uM measured after 24 hrs by Annexin-V FITC/PI staining based flow cytometry analysis (Rvb= 93.0%); type: functional
MCF7 [5] = experiment: Induction of apoptosis in human MCF7 cells assessed as early apoptotic cells at 0.5 uM measured after 24 hrs by Annexin-V FITC/PI staining based flow cytometry analysis (Rvb= 1.33%); type: functional
MCF7 [6] = experiment: Induction of apoptosis in human MCF7 cells assessed as early apoptotic cells at 0.25 uM measured after 24 hrs by Annexin-V FITC/PI staining based flow cytometry analysis (Rvb= 1.33%); type: functional
MCF7 [7] = experiment: Antitumor activity against human MCF7 cells xenografted in BALB/c nude mouse assessed as reduction in tumor weight at 30 to 60 mg/kg, ip administered once every 2 days for 21 consecutive days; type: functional, organism-based; settings: dose 30-60 mg/kg, time 21.0 day
MCF7 [8] = experiment: Inhibition of PI3K/AKT signalling pathway in human MCF7 cells assessed as reduction in phosphorylated PI3K expression measured after 24 hrs by western blot analysis; type: cell-based; settings: dose 0.5-2 µM
MCF7 [9] = experiment: Induction of apoptosis in human MCF7 cells assessed as late apoptotic cells at 0.25 uM measured after 24 hrs by Annexin-V FITC/PI staining based flow cytometry analysis (Rvb= 5.61%); type: functional
MCF7 [10] = experiment: Induction of cell cycle arrest in human MCF7 cells assessed as accumulation of cells in G2 phase at 0.25 uM measured after 24 hrs by propidium iodide staining based flow cytometry analysis (Rvb= 18.5%); type: functional
[11] = Toxicity in BALB/c mouse xenografted with human MCF7 cells assessed as effect on lung at 30 to 60 mg/kg, ip measured after 21 days by hematoxylin and eosin staining based histopathological analysis; type: organism-based; settings: in vivo, 504 h, dose 30-60 mg/kg, time 21 day
MCF7 [12] = experiment: Induction of cell cycle arrest in human MCF7 cells assessed as accumulation of cells in S phase at 0.5 uM measured after 24 hrs by propidium iodide staining based flow cytometry analysis (Rvb= 25.71%); type: functional
MCF7 [13] = experiment: Induction of cell cycle arrest in human MCF7 cells assessed as accumulation of cells in S phase at 1 uM measured after 24 hrs by propidium iodide staining based flow cytometry analysis (Rvb= 25.71%); type: functional
MCF7 [14] = experiment: Induction of cell cycle arrest in human MCF7 cells assessed as accumulation of cells in G2 phase at 0.5 uM measured after 24 hrs by propidium iodide staining based flow cytometry analysis (Rvb= 18.5%); type: functional
MCF7 [15] = experiment: Induction of apoptosis in human MCF7 cells assessed as dead cells at 1 uM measured after 24 hrs by Annexin-V FITC/PI staining based flow cytometry analysis (Rvb= 0.06%); type: functional
[16] = Toxicity in BALB/c mouse xenografted with human MCF7 cells assessed as effect on kidney at 30 to 60 mg/kg, ip measured after 21 days by hematoxylin and eosin staining based histopathological analysis; type: organism-based; settings: in vivo, 504 h, dose 30-60 mg/kg, time 21 day
MCF7 [17] = experiment: Antitumor activity against human MCF7 cells xenografted in BALB/c nude mouse assessed as reduction in tumor volume at 30 mg/kg, ip administered once every 2 days for 21 consecutive days relative to control; type: functional; set-up: scale not given: the % may be the effect or the level left; settings: time 21 day
MCF7 [18] = experiment: Induction of cell cycle arrest in human MCF7 cells assessed as accumulation of cells in G1 phase at 0.5 uM measured after 24 hrs by propidium iodide staining based flow cytometry analysis (Rvb= 54.96%); type: functional
MCF7 [19] = experiment: Inhibition of PI3K/AKT signalling pathway in human MCF7 cells assessed as reduction in PI3K expression at 0.5 to 2 uM measured after 24 hrs by western blot analysis; type: cell-based; settings: dose 0.5-2 µM
[20] = Toxicity in BALB/c mouse xenografted with human MCF7 cells assessed as effect on heart at 30 to 60 mg/kg, ip measured after 21 days by hematoxylin and eosin staining based histopathological analysis; type: organism-based; settings: in vivo, 504 h, dose 30-60 mg/kg, time 21 day
MCF7 [21] = experiment: Induction of cell cycle arrest in human MCF7 cells assessed as accumulation of cells in S phase at 0.25 uM measured after 24 hrs by propidium iodide staining based flow cytometry analysis (Rvb= 25.71%); type: functional
MCF7 [22] = experiment: Induction of apoptosis in human MCF7 cells assessed as downregulation of Bcl-2 expression at 0.5 to 2 uM measured after 24 hrs by western blot analysis; type: functional, cell-based; settings: dose 0.5-2 µM
MCF7 [23] = experiment: Induction of apoptosis in human MCF7 cells assessed as increase in cleavage of PARP-1 at 0.5 to 2 uM measured after 24 hrs by western blot analysis; type: functional, cell-based; settings: dose 0.5-2 µM
[24] = Toxicity in BALB/c mouse xenografted with human MCF7 cells assessed as effect on liver at 30 to 60 mg/kg, ip measured after 21 days by hematoxylin and eosin staining based histopathological analysis; type: organism-based; settings: in vivo, 504 h, dose 30-60 mg/kg, time 21 day
MCF7 [25] = experiment: Induction of cell cycle arrest in human MCF7 cells assessed as accumulation of cells in G2 phase at 1 uM measured after 24 hrs by propidium iodide staining based flow cytometry analysis (Rvb= 18.5%); type: functional
[26] = Toxicity in BALB/c mouse xenografted with human MCF7 cells assessed as weight loss at 30 to 60 mg/kg, ip measured after 21 days; type: organism-based; settings: in vivo, 504 h, dose 30-60 mg/kg, time 21 day
MCF7 [27] = experiment: Antitumor activity against human MCF7 cells xenografted in ip dosed BALB/c nude mouse assessed as tumor growth inhibition administered once every 2 days for 21 consecutive days; type: functional, organism-based; settings: time 21.0 day
MCF7 [28] = experiment: Induction of cell cycle arrest in human MCF7 cells assessed as accumulation of cells in G2/M phase at 0.25 to 1 uM measured after 24 hrs by propidium iodide staining based flow cytometry analysis (Rvb= 19.7%); type: functional; settings: dose 0.25-1 µM
MCF7 [29] = experiment: Induction of apoptosis in human MCF7 cells assessed as dead cells at 0.25 uM measured after 24 hrs by Annexin-V FITC/PI staining based flow cytometry analysis (Rvb= 0.06%); type: functional
MCF7 [30] = experiment: Induction of apoptosis in human MCF7 cells assessed as dead cells at 0.5 uM measured after 24 hrs by Annexin-V FITC/PI staining based flow cytometry analysis (Rvb= 0.06%); type: functional
MCF7 [31] = experiment: Induction of apoptosis in human MCF7 cells assessed as live cells at 1 uM measured after 24 hrs by Annexin-V FITC/PI staining based flow cytometry analysis (Rvb= 93.0%); type: functional
MCF7 [32] = experiment: Antiproliferative activity against human MCF7 cells assessed as inhibition of cell growth measured after 48 hrs by MTT assay; type: functional, cell-based; settings: MCF7, 48 h

COc1cc2cc(C(=O)NCc3ccc(F)cc3)c(=O)oc2cc1OCCCOc1no[n+]([O-])c1S(=O)(=O)c1ccccc1
Activity (MCF7 [1]): 50% | inhibition (MCF7 [2]): inactive | Activity (MCF7 [3]): Active | IC50 (MDA-MB-231): 770 nM | Activity (MCF7 [4]): 87.5% | Activity (MCF7 [5]): 7.49% | Activity (MCF7 [6]): 5.72% | Activity (MCF7 [7]): Active | inhibition (MCF7 [8]): Dose-Dependent Effect | Activity (MCF7 [9]): 6.53% | Activity (MCF7 [10]): 25.76% | Activity [11]: Non-Toxic | Activity (MCF7 [12]): 19.05% | Activity (MCF7 [13]): 18.16% | Activity (MCF7 [14]): 38.44% | Activity (MCF7 [15]): 1.41% | Activity [16]: Non-Toxic | Activity (MCF7 [17]): 63.3% | Activity (MCF7 [18]): 40.11% | inhibition (MCF7 [19]): inactive | Activity [20]: Non-Toxic | Activity (MCF7 [21]): 20.8% | Activity (MCF7 [22]): Dose-Dependent Effect | Activity (MCF7 [23]): Active | Activity [24]: Non-Toxic | Activity (MCF7 [25]): 44.96% | Activity [26]: Non-Toxic | Activity (MCF7 [27]): Dose-Dependent Effect | Activity (MCF7 [28]): 47.1% | Activity (MCF7 [29]): 0.153% | Activity (MCF7 [30]): 0.196% | Activity (MCF7 [31]): 62% | IC50 (MCF7 [32]): 370 nM

— ChEMBL document CHEMBL4842344, “Design, synthesis and biological activity evaluation of novel scopoletin-NO donor derivatives against MCF-7 human breast cancer in vitro and in vivo” (Eur J Med Chem, 2021)
